Where two headings read alike, the source gives them in different places. A value given as a limit tells only on which side of the number the result lay.

IC50 data for 15 compounds are collected here from patent US20140107109A1, “AMINO-DIHYDROTHIAZINE AND AMINO-DIOXIDO DIHYDROTHIAZINE COMPOUNDS AS BETA-SECRETASE ANTAGONISTS AND METHODS OF USE” (Amgen Inc., priority 2012, published 2014).

Assay [1] concerns Aβ40 in conditioned medium of cells stably expressing Amyloid Precursor Protein (APP). As to the kind of experiment: In vitro BACE cell-based assay (HEK cell assay), Aβ40 sandwich ELISA. Particulars: Homo sapiens, HEK293. The method, then:
In Vitro BACE Cell-Based Assay
The cell-based assay measures inhibition or reduction of Aβ40 in conditioned medium of test compound treated cells expressing amyloid precursor protein.
Cells stably expressing Amyloid Precursor Protein (APP) were plated at a density of 40K cells/well in 96 well plates (Costar). The cells were cultivated for 24 hours at 37C. and 5% CO2 in DMEM supplemented with 10% FBS. The test compounds were then added to cells in 10-point dose response concentrations with the starting concentration being either 100 μM or 10 μM. The compounds were diluted from stock solutions in DMSO and the final DMSO concentration of the test compounds on cells was 0.1%. After 24 h of incubation with the test compounds the supernatant conditioned media was collected and the Aβ 40 levels were determined using a sandwich ELISA. The IC50 of the compound was calculated from the percent of control or percent inhibition of Aβ 40 as a function of the concentration of the test compound.
The sandwich ELISA to detect Aβ 40 was performed in 96 well microtiter plates, which were pre-treated with goat anti-rabbit IgG (Pierce). The capture and detecting antibody pair that were used to detect Aβ 40 from cell supernatants were affinity purified pAb40 (Biosource) and biotinylated 6E10 (Signet Labs Inc.), respectively. The optimal concentration for the pAb40 antibody was 3 μg/ml in Superblock/TBS (Pierce) that was supplemented with 0.05% Tween 20 (Sigma). Optimal concentration for the detection antibody 6E10-biotinylated was 0.5 μg/ml in Superblock/TBS (Pierce) that had been supplemented with 2% normal goat serum and 2% normal mouse serum.
Cellular supernatants were incubated with the capture antibody for 3 h at 4° C., followed by 3 wash steps in TBS-tween (0.05%). The detecting antibody incubation was for 2 h at 4° C., again followed by the wash steps as described previously. The final readout of the ELISA is Time-Resolved Fluorescence (counts per minute) using Delfia reagents Streptavidin-Europium and Enhancement solutions (Perkin Elmer) and the Victor 2 multilabel counter (Perkin Elmer).

In assay [2] the target is T1, Cathepsin D (Cat D) (Homo sapiens, UniProt P07339).
T1 construct: Recombinant Cat D was expressed in CHO cells; made in house; host or cells: CHO cells
T1 sequence (P07339 65-412, species assumed): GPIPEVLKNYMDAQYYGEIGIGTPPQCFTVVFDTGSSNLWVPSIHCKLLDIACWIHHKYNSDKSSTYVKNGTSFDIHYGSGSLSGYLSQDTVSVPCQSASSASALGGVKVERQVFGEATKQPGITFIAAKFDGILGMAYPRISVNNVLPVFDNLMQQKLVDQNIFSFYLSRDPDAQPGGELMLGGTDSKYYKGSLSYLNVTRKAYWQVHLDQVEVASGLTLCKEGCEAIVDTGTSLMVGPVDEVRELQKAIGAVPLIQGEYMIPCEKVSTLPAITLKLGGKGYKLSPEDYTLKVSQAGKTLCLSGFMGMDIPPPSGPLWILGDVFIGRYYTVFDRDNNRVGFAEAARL
Put plainly: In vitro enzymatic Cathepsin D (Cat D) FRET assay. Format: biochemical. Particulars: read-out: CatD IC50. The method, then:
In Vitro Enzymatic Cathepsin D (Cat D) FRET (Fluorescence Resonance Energy Transfer) Assay Recombinant Cat D was expressed in CHO cells. […] The Cat D enzyme (9 nM) is pre-incubated for one hour with inhibitors, typically in about 1 uL of DMSO according to a serial dilution, is added thereto. […] The FRET assay is terminated with by addition of Tris buffer, which raises the pH to neutrality, and the fluorescence is determined. The FRET substrate is a peptide with commercially available fluorophore and quencher, on opposite sides of the BACE cleavage site. The Cat D substrate peptide sequence is based on sequence #1 of Table 1 from Gulnik et al. […] Alternatively, a Cat D assay may also be run according to the procedure described in the article, Characterization of new fluorgenic substrates for the rapid and sensitive assay of cathepsin E and cathepsin D, J. Biochem., 125:1137, 1999. In addition, the cathepsin D and cathepsin E assays are described in PCT publication WO2011069934. This WIPO publication describes BACE inhibitor compounds having an amide linker connecting two aromatic groups with extremely poor cathepsin D and/or cathepsin E inhibitory activity (see Table 2). Where available, the in-vitro Cat D FRET assay data for each of the Examples, conducted by the first procedure, is provided.

In assay [3] the target is Beta Secretase enzyme (BACE1) (Homo sapiens, UniProt P56817). Put plainly: In vitro enzymatic BACE FRET assay. Format: biochemical. Particulars: read-out: BACE1 FRET assay IC50. The method, then:
In Vitro Enzymatic BACE FRET (Fluorescence Resonance Energy Transfer) Assay (Enzyme Assay Data in the Example Tables I and II)
The assay buffer used in this screen is 0.05 M acetate, pH 4.2, 10% DMSO final, 100 uM genapol (which is a nonionic detergent, below its Critical Micelle Concentration). […] This assay is effectively started by the addition of FRET substrate (50 nM) and the combination is incubated for one hour. The FRET assay is terminated with by addition of Tris buffer, which raises the pH to neutrality, and the fluorescence is determined. The FRET substrate is a peptide with commercially available fluorophore and quencher, on opposite sides of the BACE cleavage site. Proteolytic cleavage of the FRET substrate releases quenching of fluorescence (excitation […] and […]).

Sequence of Beta Secretase enzyme (BACE1) (P56817 46-501): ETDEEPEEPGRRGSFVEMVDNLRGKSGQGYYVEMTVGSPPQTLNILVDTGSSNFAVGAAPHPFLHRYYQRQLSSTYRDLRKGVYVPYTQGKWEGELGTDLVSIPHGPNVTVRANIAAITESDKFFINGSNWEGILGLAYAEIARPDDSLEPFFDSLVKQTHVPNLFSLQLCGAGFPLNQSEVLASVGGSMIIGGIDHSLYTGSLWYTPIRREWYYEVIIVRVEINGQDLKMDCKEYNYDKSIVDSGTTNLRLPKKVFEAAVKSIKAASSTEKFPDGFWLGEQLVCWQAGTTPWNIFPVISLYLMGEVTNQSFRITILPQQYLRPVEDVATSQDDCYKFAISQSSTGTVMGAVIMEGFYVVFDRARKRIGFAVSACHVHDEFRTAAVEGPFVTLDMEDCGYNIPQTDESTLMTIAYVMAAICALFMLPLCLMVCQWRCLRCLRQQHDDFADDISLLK

For the compound `CC1(C)C(N)=N[C@](C)(c2cc(Oc3cnccn3)ccc2F)CS1(=O)=O` [Example 270, (5R)-5-(2-fluoro-5-(2-pyrazinyloxy)phenyl)-2,2,5-trimethyl-5,6-dihydro-2H-1,4-thiazin-3-amine 1,1-dioxide], the IC50 is 0.0511 µM in assay [1] (average IC50, cell assay); 222 µM in assay [2]; 0.0935 µM in assay [3] (average IC50, enzyme assay).

As to `CC1(C)C(N)=N[C@](C)(c2cc(NC(=O)c3ccc(C(F)(F)F)cn3)ccc2F)CS1(=O)=O` [Example 342, N-(3-((3R)-5-amino-3,6,6-trimethyl-1,1-dioxido-3,6-dihydro-2H-1,4-thiazin-3-yl)-4-fluorophenyl)-5-(trifluoromethyl)-2-pyridinecarboxamide], the IC50 stood at 0.0007 µM in assay [1] (average IC50, HEK cell assay); 113 µM in assay [2]; 0.00061 µM in assay [3] (average IC50, enzyme assay).

As for `CC(C)c1cc(Cl)cnc1C(=O)Nc1ccc(F)c([C@]2(CF)CS(=O)(=O)C(C)(C)C(N)=N2)c1` [Example 198, (S)—N-(3-(5-amino-3-(fluoromethyl)-6,6-dimethyl-1,1-dioxido-3,6-dihydro-2H-1,4-thiazin-3-yl)-4-fluorophenyl)-5-chloro-3-isopropylpicolinamide 2,2,2-trifluoroacetate], the concentration for half-maximal inhibition (IC50) worked out at 0.0914 µM in assay [1] (average IC50, HEK cell assay); 850 µM in assay [2]; 0.00799 µM in assay [3] (average IC50, enzyme assay).

For the compound `CC1(C)C(N)=N[C@](C)(c2cc(Oc3cc(C#N)ccn3)ccc2F)CS1(=O)=O` [Example 280, 2-(3-((3R)-5-amino-3,6,6-trimethyl-1,1-dioxido-3,6-dihydro-2H-1,4-thiazin-3-yl)-4-fluorophenoxy)-4-pyridinecarbonitrile], the 50% inhibitory concentration (IC50) in assay [1] (average IC50, cell assay) came out at 0.0521 µM; in assay [2], 395 µM; in assay [3] (average IC50, enzyme assay), 0.039 µM.

On to `CCc1cccc(Oc2ccc(F)c([C@]3(C)CS(=O)(=O)C(C)(C)C(N)=N3)c2)c1` [Example 99, (R)-5-amino-3-(5-(3-ethylphenoxy)-2-fluorophenyl)-3,6,6-trimethyl-3,6-dihydro-2H-1,4-thiazine 1,1-dioxide], for which the IC50 in assay [1] (Aβ40, 24 h incubation) amounted to 6.68 µM; in assay [2], 86.8 µM; in assay [3] it was 1.43 µM.

As to `COc1cnc2c(Nc3ccc(F)c([C@]4(CF)CS(=O)(=O)C5(CCC5)C(N)=N4)c3)ncnc2c1` [Example 242, N-(3-((7S)-9-amino-7-(fluoromethyl)-5,5-dioxido-5-thia-8-azaspiro[3.5]non-8-en-7-yl)-4-fluorophenyl)-7-methoxypyrido[3,2-d]pyrimidin-4-amine], the IC50 was 0.014 µM in assay [1] (average IC50, cell assay); 119 µM in assay [2]; 0.00147 µM in assay [3] (average IC50, enzyme assay).

For the compound `COc1cnc2c(Nc3cnc(F)c([C@]4(C)CS(=O)(=O)C5(CCC5)C(N)=N4)c3)nccc2n1` [Example 231, N-(5-((7R)-9-amino-7-methyl-5,5-dioxido-5-thia-8-azaspiro[3.5]non-8-en-7-yl)-6-fluoro-3-pyridinyl)-2-methoxypyrido[3,4-b]pyrazin-5-amine], the half-maximal inhibitory concentration (IC50) in assay [1] (average IC50, cell assay) is 0.0181 µM; in assay [2], 163 µM; in assay [3] (average IC50, enzyme assay), 0.00641 µM.

On to `COc1cnc2c(Nc3ccc(F)c([C@]4(C)CS(=O)(=O)[C@@](C)(F)C(N)=N4)c3)nccc2c1` [Example 74, (3R,6R)-5-Amino-6-fluoro-3-(2-fluorophenyl-5-((3-methoxy-1,7-naphthyridin-8-yl)amino)phenyl)-3,6-dimethyl-3,6-dihydro-2H-1,4-thiazine 1,1-dioxide], for which the IC50 is 0.102 µM in assay [1] (Aβ40, 24 h incubation); over 400 µM in assay [2]; 0.0137 µM in assay [3].

For the compound `COc1cnc2c(Nc3ccc(F)c([C@]4(C(F)F)CS(=O)(=O)C(C)(C)C(N)=N4)c3)nccc2c1` [Example 67, (S)-5-Amino-3-(difluoromethyl)-3-(2-fluoro-5-((3-methoxy-1,7-naphthyridin-8-yl)amino)phenyl)-6,6-dimethyl-3,6-dihydro-2H-1,4-thiazine 1,1-dioxide], the IC50 in assay [1] (Aβ40, 24 h incubation) is 0.98 µM; in assay [2], over 400 µM; in assay [3], 0.068 µM.

Take `C=C(C)c1cc(Cl)cnc1C(=O)Nc1ccc(F)c([C@]2(CF)CS(=O)(=O)C(C)(C)C(N)=N2)c1` [Example 407, N-(3-((3S)-5-amino-3-(fluoromethyl)-6,6-dimethyl-1,1-dioxido-3,6-dihydro-2H-1,4-thiazin-3-yl)-4-fluorophenyl)-5-chloro-3-(1-methylethenyl)-2-pyridinecarboxamide]: the concentration for half-maximal inhibition (IC50) in assay [1] came to 0.057 µM; in assay [2], 440 µM; in assay [3], 0.00354 µM.

In the case of `CC1(C)C(N)=N[C@](C)(c2cc(NC(=O)c3ccc(C#N)cn3)cnc2F)CS1(=O)=O` [Example 403, N-(5-((3R)-5-amino-3,6,6-trimethyl-1,1-dioxido-3,6-dihydro-2H-1,4-thiazin-3-yl)-6-fluoro-3-pyridinyl)-5-cyano-2-pyridinecarboxamide], the values for the IC50 in assay [1], in assay [2] and in assay [3] were 0.0146 µM, 233 µM and 0.0019 µM, respectively.

As to `CC1(C)C(N)=N[C@](C)(c2cc(Nc3ncc(CO)c4cc(Cl)cnc34)ccc2F)CS1(=O)=O` [Example 191, (R)-5-amino-3-(5-((3-chloro-5-(hydroxymethyl)-1,7-naphthyridin-8-yl)-amino)-2-fluorophenyl)-3,6,6-trimethyl-3,6-dihydro-2H-1,4-thiazine 1,1-dioxide], the IC50 in assay [1] (average IC50, cell assay) came out at 0.0089 µM; in assay [2], 65 µM; in assay [3] (average IC50, enzyme assay), 0.00447 µM.

As for `CC1(C)C(N)=N[C@](C)(c2cc(NC(=O)c3ccc(C#N)cn3)ccc2F)CS1(=O)=O` [Example 23, N-(3-((3R)-5-amino-3,6,6-trimethyl-1,1-dioxido-3,6-dihydro-2H-1,4-thiazin-3-yl)-4-fluorophenyl)-5-cyano-2-pyridinecarboxamide], the concentration for half-maximal inhibition (IC50) was found to be 0.0027 µM in assay [1] (Aβ40, 24 h incubation); 617 µM in assay [2]; 0.0027 µM in assay [3].

In the case of `CC1(C)C(N)=N[C@](CF)(c2cc(NC(=O)c3cn4cc(Cl)ccc4n3)ccc2F)CS1(=O)=O` [Example 391, N-(3-((3S)-5-amino-3-(fluoromethyl)-6,6-dimethyl-1,1-dioxido-3,6-dihydro-2H-1,4-thiazin-3-yl)-4-fluorophenyl)-6-chloroimidazo[1,2-a]pyridine-2-carboxamide], the 50% inhibitory concentration (IC50) in assay [1] worked out at 0.0361 µM; in assay [2] it was 303 µM; in assay [3] it was 0.00969 µM.

Turning to `C[C@@]1(c2cc(Br)ccc2F)CS(=O)(=O)C2(CCOC2)C(N)=N1` (mixture of isomers) [Example 181, (8R)-10-Amino-8-(5-bromo-2-fluorophenyl)-8-methyl-2-oxa-6-thia-9-azaspiro[4.5]dec-9-ene 6,6-dioxide], the IC50 in assay [1] (average IC50, HEK cells) was over 15.6 µM; in assay [2] it was 43.3 µM; in assay [3] (average IC50), 16.3 µM.
